From US11305021B2, “Membrane-lytic block copolymers” (UNIVERSITY OF WASHINGTON, priority 2016, dated 2022)
Entries after “also recorded” stand apart in the source; their conditions may differ.

What was measured:
[1] = Assembly behavior of VIPER by TEM imaging and DLS analysis; assay type: physicochemical
From the text: To verify this hypothesized mechanism, the assembly behavior of VIPER at pH 7.4 and pH 5.7 was monitored by both transmission electron microscopy (TEM) imaging and dynamic light scattering (DLS) analysis. VIPER assembles into uniform spherical nanoparticles with diameter around 30 nm at pH 7.4 (FIGS. 2A and C for TEM and DLS, respectively).
The morphology of polymers and polyplexes under dried state were imaged on a JEOL 1140 TEM at an acceleration voltage of 100 kV. In order to observe the morphology of polymer assemblies under different pHs, the polymer solutions (1 mg/mL, in distilled water) were diluted with PB to pH 7.4 and 5.7. Then the resulting solutions (10 μL) were deposited on the top of the 400-mesh formvar/copper grids and incubated at room temperature for 30 min. After staining with uranyl acetate, the grids were allowed to air dry overnight. The preparation of polyplexes samples were the same as polymer samples.

human red blood cells = test: Hemolysis assay (acid-triggered membrane-lytic activity); assay type: cell-based
Procedure: Hemolysis assay was used to evaluate the acid-triggered membrane-lytic activity of the synthesized materials at pH 7.4 (extracellular pH) and 5.7 (endosomal pH). Briefly, plasma from human blood was removed by centrifugation. The red blood cells were washed three times with 150 mM NaCl, and resuspended into phosphate buffer (PB) at pH 7.4 or 5.7. The polymers at various concentrations ([…]) and 1% Triton X-100 as control, were added to the RBC suspensions in a 96-well conical plate and was allowed to incubate for 1 h at 37° C. After centrifugation, the released hemoglobin within the supernatant was measured by UV at 541 nm. Percent hemolysis was calculated relative to Triton X-100. Experiments were performed in triplicate.

[2] = system: HeLa, KB, A549 and Z310 cells; test: In vitro transfection with luciferase plasmid; assay type: cell-based
Procedure: HeLa, KB, Z310 and A549 cells were seeded at a density of 25,000 cells/well in complete cell culture medium in a 24-well plate. Cells were firstly incubated at 37° C., 5% CO2 for 24 h. Polyplexes were prepared at different N/P ratios using 0.5 μg of pCMV-Luc2 pDNA in 10 μL total volume. Each sample was diluted to 200 μL with complete cell culture medium. The cells were rinsed once with PBS, followed by the addition of transfection solution. After incubation for 4 h, cells were washed with PBS twice and the polyplexes solution was replaced with complete cell culture medium. After additional 20 h incubation, luciferase activity was quantified with a luciferase assay kit (Promega Corp, Fitchburg, Wis.) according to the manufacturer's instruction, except that a freeze-thaw cycle at −80 OC was included after the addition of the lysis buffer to ensure complete cell lysis. Luminescence intensity was measured on the plate reader with integration for 1 s. The total protein content in each well was measured by a BCA Protein Assay Kit (Thermo Scientific, Rockford, Ill.) according to the manufacturer's instruction so that the luciferase activity was normalized to the total protein content in each well. Each sample was tested with a sample size (n)=3. The N/P ratio used for bPEI is 5, which was previous determined to show optimized transfection efficiency. […]

[3] = system: HeLa, KB, A549 and Z310 cells; test: GFP transfection; assay type: cell-based; conditions: GFP plasmid
Procedure: The transfection with GFP (green fluorescence plasmid) on different cell lines was the same as that with luciferase plasmid. For analysis, cells were washed with PBS, trypsinized and pelleted at 300×g for 5 min at 4° C. The pellet was resuspended in 0.3 mL propidium iodide (PI) solution (1 μg/mL in 0.5% BSA in PBS), kept on ice and analyzed using flow cytometry, MACSQuant Analyzer (Miltenyi Biotec Inc., Auburn, Calif.). Intact cells were identified using the forward and side scatter data. The resulting cell population was gated into GFP+/PI+, GFP+/PI−, GFP−/PI+ and GFP−/PI− based on the green fluorescence and PI intensity from the control samples (cells transfected without the polymers but DNA only) and reported as the mean percentage of cell population that is GFP+/PI− including standard deviation (SD). All experiments were conducted in triplicate.

P(OEGMA11-DMAEMA56)-b-p(DIPAMA33-PDSEMA-g-melittin)1) [VIPER]
assemblies observed ([1]; pH 5.7): no assemblies were observed | diameter of nanoparticles ([1]; pH 7.4): around 30 nm | concentration for 50% lysis (human red blood cells; pH 5.7): 30 µg/mL | concentration for complete lysis (human red blood cells; pH 5.7): 120 µg/mL | cell lysis (human red blood cells; pH 7.4, VIPER concentrations as high as 240 μg/mL): no significant cell lysis; also recorded: minimal membrane-lytic activity | transfection efficiency compared to optimized LF formulations ([2]; HeLa, KB and Z310 cells): improved transfection efficiency | luciferase activity compared to CP and bPEI ([2]; all tested cell lines): orders of magnitude higher | fold more transfected cells compared to CP [3]: 13- to 60 fold | fold more transfected cells compared to bPEI [3]: 11- to 46 fold | transfection efficiency, GFP+ cells ([3]; range over cell lines): 36-77%
